Laboratory results reported in ChEMBL document CHEMBL1123104, “Enzyme-activated irreversible inhibitors of monoamine oxidase: phenylallylamine structure-activity relationships” (J Med Chem, 1985).

Each compound was assayed against T1, Monoamine oxidase (Rattus norvegicus, UniProt P19643+P21396) (assay: Inhibitory activity against rat brain mitochondrial Monoamine oxidase).
T1 sequence (P19643 whole entry): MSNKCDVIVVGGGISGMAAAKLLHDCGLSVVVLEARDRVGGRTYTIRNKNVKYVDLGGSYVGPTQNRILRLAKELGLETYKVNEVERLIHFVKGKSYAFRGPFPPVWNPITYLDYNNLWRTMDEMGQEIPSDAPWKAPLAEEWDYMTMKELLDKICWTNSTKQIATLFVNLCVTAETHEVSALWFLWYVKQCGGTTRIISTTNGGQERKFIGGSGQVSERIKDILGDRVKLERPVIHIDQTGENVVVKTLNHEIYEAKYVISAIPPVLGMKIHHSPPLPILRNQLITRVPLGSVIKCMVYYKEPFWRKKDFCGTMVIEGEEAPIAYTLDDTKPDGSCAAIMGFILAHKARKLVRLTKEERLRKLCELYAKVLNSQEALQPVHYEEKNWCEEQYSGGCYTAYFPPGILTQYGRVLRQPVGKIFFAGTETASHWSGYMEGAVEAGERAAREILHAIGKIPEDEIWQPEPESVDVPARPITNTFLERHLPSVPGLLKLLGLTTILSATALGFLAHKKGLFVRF
T1 sequence (P21396 whole entry): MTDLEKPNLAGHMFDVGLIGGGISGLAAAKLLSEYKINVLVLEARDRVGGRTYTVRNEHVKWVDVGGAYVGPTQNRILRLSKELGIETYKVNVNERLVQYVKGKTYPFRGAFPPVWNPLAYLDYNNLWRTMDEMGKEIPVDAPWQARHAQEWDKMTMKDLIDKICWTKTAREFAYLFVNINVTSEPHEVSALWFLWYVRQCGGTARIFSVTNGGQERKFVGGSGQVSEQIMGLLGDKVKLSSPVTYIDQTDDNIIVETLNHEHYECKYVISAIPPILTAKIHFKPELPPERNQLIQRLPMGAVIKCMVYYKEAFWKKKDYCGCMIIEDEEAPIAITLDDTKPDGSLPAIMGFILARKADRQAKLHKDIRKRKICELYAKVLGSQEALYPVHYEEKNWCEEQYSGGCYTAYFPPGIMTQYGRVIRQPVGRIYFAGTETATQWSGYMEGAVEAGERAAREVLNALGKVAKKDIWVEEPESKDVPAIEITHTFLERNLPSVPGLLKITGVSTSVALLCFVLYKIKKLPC

Point of comparison: `COc1ccccc1/C(=C\F)CN.Cl`, IC50 0.025 µM. Against it:
- Cl.NC/C(=C/F)c1ccc(Cl)cc1 — within 1.5-fold, 0.02 µM
- COc1ccc(/C(=C\F)CN)cc1OC.Cl — the same, 0.025 µM
- Cc1ccc(/C(=C\F)CN)cc1.Cl — 2.5-fold lower, 0.01 µM
- Cl.NC/C(=C/F)c1cccc(C(F)(F)F)c1 — 3.6-fold lower, 0.007 µM
- Cl.NCC(=C(F)F)c1ccccc1 — 400-fold higher, 10 µM
- C=CCN [ALLYLAMINE] — 20000-fold higher, 500 µM
- Cl.NC/C(=C/Cl)c1ccccc1 — 4000-fold higher, 100 µM
- Cl.NC/C(=C/F)c1ccc(O)c(O)c1 — 4-fold higher, 0.1 µM
- Cl.NC/C(=C\F)c1ccccc1 — 6-fold higher, 0.15 µM
- C=C(CN)c1ccccc1.Cl — 16000-fold higher, 400 µM
- Cl.NC/C(=C/F)c1ccccc1 — within 1.5-fold, 0.018 µM
- Cl.NC/C(=C/F)c1cccc(O)c1 — 2-fold higher, 0.05 µM
- Cl.NC/C(=C\Cl)c1ccccc1 — 20000-fold higher, 500 µM
- COc1cccc(/C(=C\F)CN)c1.Cl — 5-fold lower, 0.005 µM
- Cl.NCC(=C(Br)Br)c1ccccc1 — 20000-fold higher, 500 µM
- Cl.NC/C(=C/Br)c1ccccc1 — 1600-fold higher, 40 µM
